Results taken from patent US11708500B2, “Solvent compounds for use as coalescents” (TBF ENVIRONMENTAL TECHNOLOGY INC., priority 2017, dated 2023).
Like-named read-outs stand apart in the source and are kept apart here.

Legend:
[1] = XTR5 vs Texanol paint in Raycryl 1526 acrylic emulsion polymer; conditions: Raycryl 1526 paint
Excerpt: (§1) Bis(1-butoxypropan-2-yl) carbonate (TreviSol, XTR5) was used as a direct replacement for other typical coalescents, such as, Texanol™, as follows.

[2] = XTR5 vs Texanol coating in Raycryl 1001 acrylic emulsion polymer; conditions: Raycryl 1001 coating
Excerpt: as §1

[3] = XTR5 vs Texanol coating in EPS 2708 acrylic emulsion polymer; conditions: EPS 2708 coating
Excerpt: as §1

[4] = Physical/chemical properties of XTR5

Row | Structure (SMILES) | Specific Gravity [1] | VOC (Without Water) [1] | Viscosity [1] | Volume Solid % [1] | Weight Solid % [1] | Specific Gravity [2] | VOC (Without Water) [2] | Viscosity [2] | Volume Solid % [2] | Weight Solid % [2] | Specific Gravity [3] | VOC (Without Water) [3] | Viscosity [3] | Volume Solid % [3] | Weight Solid % [3] | other results
1 | CCCCOCC(C)OC(=O)OC(C)COCCCC (centres unmarked) [XTR5, bis(1-butoxypropan-2-yl) carbonate] | 1.25 g/cm3 | 45.0 g/L | 90 KU | 40.91% | 51.91% | 1.32 g/cm3 | 1.5 g/L | 95 KU | 41.1% | 54.6% | 1.33 g/cm3 | 59.6 g/L | 95 KU | 41.0% | 54.5% | Clarity [4]: Clear; Colour (Alpha, max) [4]: 10; Density [4]: (7.94 lb/gal); Evaporation Rate [4]: Slow and Close to Texanol; Partial Coefficient (Range) [4]: 0.7-2.0; Texanol Solubility [4]: Soluble; VOC [4]: 0 g/L; Volatility (%) [4]: 100%; Water Solubility [4]: Not Soluble; Specific Gravity ([4]; @15.5°): 0.956; Density ([4]; @ 20° C.): 0.951 g/mL; Solubility in H2O ([4]; @ 25° C.): Insoluble; Vapour Pressure ([4]; @ 25° C.): 0.005 mm Hg; Viscosity ([4]; @ 25° C.): 0.58 cP; Vapour Density (mm Hg Air = 1) ([4]; Air = 1): 0.95; TGA Weight Loss ([4]; Ambient 115-240° C.): 97.94%; Evaporation Rate (n-Butyl Acetate = 1) ([4]; n-Butyl Acetate = 1): 0.0004
2 | CC(C)C(=O)OCC(C)(C)C(O)C(C)C (centres unmarked) [Texanol, 2-methyl-, 3-hydroxy-2,2,4-trimethylpentyl ester, reference compound] | 1.25 g/cm3 | 95.0 g/L | 90 KU | 40.91% | 51.91% | 1.32 g/cm3 | 54.6 g/L | 95 KU | 41.1% | 54.6% | 1.33 g/cm3 | 103.3 g/L | 95 KU | 41.0% | 54.5% | 
